Measurements from EP1121937A1, “VACCINE PR[…]” (THE KITASATO INSTITUTE, priority 1998, dated 2000).
Entries after “also recorded” stand apart in the source; their conditions may differ.

What was measured:
[1] = background art; cited from earlier work
cellular immunity = conditions: background art; cited from earlier work
[2] = tested on: influenza HA vaccine (A/PR/8/34 strain); parameters: species or system BALB/c mice; conditions: mouse, in vivo
sheep erythrocytes = assay: Hemolytic test for active saponins (Example 6); type: cell-based; conditions: 30 minutes at room temperature, solutions 3.125 to 200 µg/ml in PBS, E and F judged at a final concentration of 200 µg/ml
Description: It has been known that saponins generally have the hemolytic activity. Thus, the inventive active saponins were tested for the hemolytic activity as follows. The sheep erythrocytes were washed 3 times with phosphate buffered saline (PBS), and then diluted 2.5 times with the same buffer for the subsequent experiment. Aliquots (100 µl ) of solutions of onjisaponins A, E, F, and G (200, 100, 50, 25, 6.25, 3.125 µg/ml-PBS solution) were added to V-shaped wells of a 96-well micro-plate, and 25 µl of sheep erythrocyte suspension was added to each well. The plate was allowed to stand still at room temperature for 30 minutes. Then, the samples were centrifuged at 1000 rpm for 5 minutes. An aliquot (50 µl) of the resulting supernatant was transferred to a flat-bottomed well of a plate and the absorbance thereof was measured at 490 nm in a micro-plate reader (Model 450, BioRad Co.). The hemolytic activity of test compound was evaluated based on the increase in absorbance at 490 nm, which results from the release of hemoglobin from sheep erythrocytes.

[3] = tested on: pertussis-diphtheria-tetanus combined vaccine; parameters: species or system BALB/c mice; conditions: mouse, in vivo
[4] = tested on: pertussis-diphtheria-tetanus combined vaccine; parameters: species or system BALB/c mice; conditions: mouse, in vivo; remark: listed apart in the source
[5] = tested on: influenza HA vaccine (A/Beijing/262/95 strain); parameters: species or system BALB/c mice; conditions: mouse, in vivo
[6] = tested on: influenza HA vaccine (A/Beijing/262/95 strain); type: in vivo, BALB/c mice

Substance	solubility [1]	induction of cellular immunity (cellular immunity)	anti-HA-IgA antibody titer in the nasal irrigation liquid [2]	anti-HA-IgG antibody titer in the nasal irrigation liquid [2]	hemolytic activity (release of hemoglobin, absorbance at 490 nm) (sheep erythrocytes)	titer of anti-DT-IgG antibody in the serum [3]	titer of anti-PT-IgG antibody in the serum [3]	titer of anti-TT-IgG antibody in the serum [3]	titer of anti-DT-IgA antibody in the nasal irrigation liquid [4]	titer of anti-TT-IgA antibody in the nasal irrigation liquid [4]	anti-HA-IgA and IgG antibody titers in the nasal irrigation liquid compared with the group given vaccine in combination with CTB [2]	titers of anti-PT-IgG, anti-DT-IgG and anti-TT-IgG antibodies in the serum compared with the group given vaccine and CTB [3]	titer of anti-PT-IgA antibody in the nasal irrigation liquid [4]	titers of anti-PT-IgA, anti-DT-IgA and anti-TT-IgA antibodies in the nasal irrigation liquid compared with the group given vaccine and CTB [4]	HI antibody titer in the serum compared with HA vaccine alone [5]	adjuvant activity (serum HI antibody titer) compared with the same amount of CTB [5]	adjuvant activity of enhancing the titer of anti-HA-IgA antibody compared with the same amount of CTB ([6]; mouse, in vivo)	anti-HA-IgA antibody titer in the nasal irrigation liquid ([6]; secondary response, […])	anti-HA-IgG antibody titer in the nasal irrigation liquid ([6]; secondary response, […])
QS-21	too low	strongly induces the cellular immunity																	
onjisaponin E			increased only the production of anti-HA-IgA to a statistically significant level	increased only the production of anti-HA-IgA	substantially no hemolytic activity; also recorded: low hemolytic activity; also recorded: hardly recognized														
onjisaponin G			increased only the production of anti-HA-IgA to a statistically significant level	increased only the production of anti-HA-IgA	low hemolytic activity; also recorded: moderate degree of hemolysis	increased only anti-TT-IgG antibody titer	increased only anti-TT-IgG antibody titer	increased only anti-TT-IgG antibody titer to a statistically significant level	also elevated	also elevated									
onjisaponin A			increased to the highest level	increased to the highest level	not acceptable; also recorded: hemolysis clearly occurred	increased to highest levels	increased to highest levels	increased to highest levels	increased to highest levels	increased to highest levels	comparable	comparable	increased to highest levels	comparable					
onjisaponin F			increased the production	increased the production	substantially no hemolytic activity; also recorded: low hemolytic activity; also recorded: hardly recognized	also elevated	also elevated	also elevated	increased to highest levels	increased to highest levels			increased to highest levels	comparable	significantly increased	slightly weaker	lower	significantly increased	significantly increased
